We go through one substance from patent publication US6844321B2, “Crystallization of a GLP-1 analogue” (Novo Nordisk A/S, priority 2000, dated 2005).

The nature of this series: isoelectric point (pI) of the GLP-1 analogue. Particulars: isoelectric point of the peptide, stated in the description. The class given is physicochemical.

Regarding Arg^34GLP-1(7-37), the pI result is on record as “about 5.4”.
